Test results: PubChem BioAssay AID588688 (Southern Research Specialized Biocontainment Screening …, 2011)
Calls of active or inactive are those of the source.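 Rule for the calls: active = inhibition of 30% or more at any tested concentration; inactive = the rest.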

Molecular target: M17 leucyl aminopeptidase (Plasmodium falciparum 3D7)
Experiment: PfM17LAP leucine aminopeptidase inhibitors, dose response, biochemical, QFRET (AID 588688)
Conditions: recombinant PfM17LAP, H-Leu-NHMec fluorogenic substrate cleavage; for inhibition: at 100 µM (top of the series)

| SMILES | inhibition | IC50 |
| --- | --- | --- |
| O=C(O)c1ccccc1C(=O)Nc1nc2c(s1)CCCC2 | inactive |  |
| O=C(Cc1cccc2ccccc12)NO |  | 6.11 µM |
| O=C(CSc1nc(O)cc(=O)[nH]1)Nc1ccccc1 |  | 101 µM |
| O=C(CSc1nccc(=O)[nH]1)Nc1ccc(N2CCOCC2)cc1 |  | 17.5 µM |
| CCn1c2ccccc2c2cc(NC(=O)CSc3nc(C)cc(=O)[nH]3)ccc21 |  | 10.8 µM |
| CC1=C(C)CC(C(=O)Nc2nc(-c3cc(C)ccc3C)c(C)s2)C(C(=O)O)C1 (configuration not stated) |  | 58.8 µM |
| CC(C)C[C@H](N)C(=O)NO | inactive |  |
| CC1CCc2sc(C(=O)Nc3cccc4c3C(=O)NC4)cc2C1 (configuration not stated) | inactive |  |
| Cc1cc(SCC(=O)Nc2ccccc2C(=O)O)nc2ccccc12 |  | 17.1 µM |
| Cc1ccc(NC(=O)CSc2nc(O)cc(=O)n2Cc2ccccc2)cc1 |  | 33.5 µM |
| O=C(Cc1ccc2ccccc2c1)NO |  | 0.79 µM |
| COC(=O)c1c(NC(=O)C2CC=CCC2C(=O)O)sc(C)c1-c1ccc(C)cc1 (configuration not stated) |  | 5.13 µM |
| O=C(Nc1ccc(Cl)cc1)Nc1ccccc1C(=O)O | inactive |  |
| COc1ccc(-c2nnc(NC(=O)C3CC(C)=C(C)CC3C(=O)O)s2)cc1 (configuration not stated) |  | 96.9 µM |
| NC(N)=NCCC[C@H](N)C(=O)NO | inactive |  |
| COC(=O)c1ccccc1NC(=O)c1ccc2c(Cl)c3c(nc2c1)CCC3 | inactive |  |
| O=C(CSc1nccc(=O)[nH]1)Nc1ccc(Oc2ccccc2)cc1 |  | 23.6 µM |
| COc1cc(NC(=O)CSc2ccccc2)c(C(=O)O)cc1OC |  | 25.6 µM |

Further lines, results first:

| inhibition | IC50 | SMILES |
| --- | --- | --- |
| inactive |  | COc1cc(NC(=O)c2ccc(-c3ccccc3)cc2)c(C(=O)O)cc1OC |
|  | 65.6 µM | COc1ccc(OCCC(=O)NO)cc1 |
| inactive |  | COC(=O)c1c(NC(=O)c2ccccc2C(=O)O)sc2c1CCCC2 |
|  | 46.6 µM | CC1=C(C)CC(C(=O)Nc2ccc(Oc3ccc(Cl)cc3)cc2)C(C(=O)O)C1 (configuration not stated) |
| inactive |  | COC(=O)c1ccccc1NC(=O)c1cc2cc3ccc(C)cc3nc2s1 |
| inactive |  | COC(=O)c1cc(OC)c(OC)cc1NC(=O)c1sc2nc(C)ccc2c1N |
| inactive |  | N[C@@H](Cc1c[nH]c2ccccc12)C(=O)NO |
| inactive |  | O=C(CSc1ccccc1)Nc1cccc2c1C(=O)NC2=O |
| inactive |  | CCC(C)(C)C1CCc2c(sc(NC(=O)C3CC(C)=C(C)CC3C(=O)O)c2C(=O)OC)C1 (configuration not stated) |
